Test [1] addresses Human PKC delta (Homo sapiens, UniProt Q05655). The test can be described thus: In vitro PKC inhibition, PKC delta. It is filed as biochemical. An excerpt:
(§1) The methods for these determinations have been described (Grant, et al. 2010, Eur. J. Pharmacol. 627:16-25).

The test system of test [2] is Interleukin-8 release. Nature of the test: Interleukin-8 release. The test is classed as cell-based.
From the text: as §1

Test [3] relates to pSHP2 (PKCβ cell assay). Nature of the test: pSHP2 (PKCβ cell assay). It is filed as cell-based.
From the text: as §1

Molecules are shown by their SMILES.

Chain of Human PKC delta (Q05655 whole entry): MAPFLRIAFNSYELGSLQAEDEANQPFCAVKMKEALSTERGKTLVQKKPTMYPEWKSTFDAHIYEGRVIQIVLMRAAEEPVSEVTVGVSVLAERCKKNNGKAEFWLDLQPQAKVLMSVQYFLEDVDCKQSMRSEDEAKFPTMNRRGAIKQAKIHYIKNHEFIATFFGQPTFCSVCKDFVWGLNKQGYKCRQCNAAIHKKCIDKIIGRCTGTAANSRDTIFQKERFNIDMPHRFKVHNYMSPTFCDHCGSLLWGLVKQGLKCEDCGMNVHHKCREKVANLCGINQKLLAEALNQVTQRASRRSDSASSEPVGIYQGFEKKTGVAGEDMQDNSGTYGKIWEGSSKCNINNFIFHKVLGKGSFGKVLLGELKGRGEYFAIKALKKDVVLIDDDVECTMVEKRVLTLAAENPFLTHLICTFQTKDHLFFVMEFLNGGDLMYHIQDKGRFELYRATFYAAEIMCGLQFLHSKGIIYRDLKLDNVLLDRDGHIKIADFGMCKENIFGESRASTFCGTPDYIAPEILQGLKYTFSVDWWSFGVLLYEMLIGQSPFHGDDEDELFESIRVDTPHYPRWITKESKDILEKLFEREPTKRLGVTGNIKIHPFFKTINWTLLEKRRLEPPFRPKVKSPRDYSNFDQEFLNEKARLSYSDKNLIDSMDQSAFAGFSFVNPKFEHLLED

Regarding `Cc1ncc(F)c(Nc2n[nH]c3c2CN(C(=O)N2C[C@@H](C)N(CC4CCOCC4)C[C@@H]2C)C3(C)C)n1` [Compound 1, 5-{[(2S,5R)-2,5-dimethyl-4-(tetrahydro-2H-pyran-4-ylmethyl)piperazin-1-yl]carbonyl}-N-(5-fluoro-2-methylpyrimidin-4-yl)-6,6-dimethyl-1,4,5,6-tetrahydropyrrolo[3,4-c]pyrazol-3-amine], the “Inhibition of PKC delta (in words)” value in test [1] is on record as “does not significantly inhibit”. Also, the results for the IC50 in test [2] and in test [3] were 39 nM and 9.8 nM, respectively.

The record behind these values is patent publication US12415807B2, “PKC inhibitor solid state forms” (MingSight Pharmaceuticals, Inc., priority 2017, dated 2025).
